# What was measured:
# Type in all cases: cell-based
# MOLM-13 = assay: Viability assay (96 hours), Alamar Blue; conditions: MOLM-13, 96 hours
# Description: (§1) AML cell lines were maintained in RPMI 10% FBS medium at 37° C. in a humidified incubator with controlled 5% CO2 atmosphere. Cell freezing and thawing was performed following recommendation from ATCC. Genetic profiling of the cell lines used is available in table 2. Cells were seeded at the optimal density (to guarantee linear growth during the treatment), as previously determined (4000 cells/well, except 16000 cells/well in the case of KASUMI-1 cells), in 96-well plates with 50 μL of medium. Three wells were reserved for each experimental condition; medium-only and vehicle-treated controls were also added for background correction and normalization respectively. […] Alamar Blue® is a cell viability indicator that uses the natural reducing power of living cells to convert resazurin to the fluorescent molecule, resorufin^43.
# THP-1 = assay: Viability assay (96 hours), Alamar Blue; conditions: THP-1, 96 hours
# Description: as §1
# HL-60 = assay: Viability assay (96 hours), Alamar Blue; conditions: HL-60, 96 hours
# Description: as §1
# MV(4;11) = assay: Viability assay (96 hours), Alamar Blue; conditions: MV(4;11), 96 hours
# Description: as §1
# KASUMI-1 = assay: Viability assay (96 hours), Alamar Blue; conditions: KASUMI-1, 96 hours
# Description: as §1
# OCI-AML3 = assay: Viability assay (96 hours), Alamar Blue; conditions: OCI-AML3, 96 hours
# Description: as §1
# MOLT-4 cells [1] = assay: Viability after shorter treatment (96 hours); conditions: MOLT-4, 96 hours treatment (data not shown)
# MOLT-4 cells [2] = assay: Viability assay (10 days), Alamar Blue; conditions: MOLT4, 10 days
# Description: MOLT4 cells were maintained in RPMI 10% FBS medium at 37° C. in a humidified incubator with controlled 5% CO2 atmosphere. Cell freezing and thawing was performed following recommendation from ATCC. Genetic profiling of the cell lines used is available in table 4.
# Three wells were reserved for each experimental condition; medium-only and vehicle-treated controls were also added for background correction and normalization respectively. After seeding, 50 μL of medium containing 8 1:3 serial dilution of ORY-1001 were added to the cells (range 0.015-100 nM). Cells were then incubated for 6 days at 37° C. in a controlled 5% CO2 atmosphere. On the sixth day, 100 μL of medium with serial dilutions of ORY-1001 (as described previously) or vehicle were added to the cells. Medium without compound (100μ) was added to background control.
# After 4 additional days of incubation, cell viability was evaluated using the Alamar Blue® staining as detailed in the section 1.1.2.
structure (smiles),measurement,setting,value
"N[C@H]1CC[C@H](N[C@@H]2C[C@H]2c2ccccc2)CC1 [ORY-1001, (trans)-N1-((1R,2S)-2-phenylcyclopropyl)cyclohexane-1,4-diamine]",Reduction of viability (compared to vehicle controls),MOLM-13; serial 1:3 dilution,greater than 20%
same,EC50 (viability),MOLM-13; single agent,sub-nanomolar range
same,Reduction of viability (compared to vehicle controls),THP-1; serial 1:3 dilution,greater than 20%
same,EC50 (viability),THP-1; single agent,sub-nanomolar range
same,Reduction of viability (compared to vehicle controls),HL-60; serial 1:3 dilution,greater than 20%
same,EC50 (viability),HL-60; single agent,sub-nanomolar range
same,Reduction of viability (compared to vehicle controls),MV(4;11); serial 1:3 dilution,greater than 20%
same,EC50 (viability),MV(4;11); single agent,sub-nanomolar range
same,Reduction of viability (compared to vehicle controls),KASUMI-1; serial 1:3 dilution,greater than 20%
same,EC50 (viability),KASUMI-1; single agent,sub-nanomolar range
same,Reduction of viability (compared to vehicle controls),OCI-AML3; serial 1:3 dilution,greater than 20%
same,EC50 (viability),OCI-AML3; single agent,sub-nanomolar range
same,Effect on viability,MOLT-4 cells [1],not affecting the viability
same,cytotoxicity at 0.1 µM,"MOLT-4 cells [2]; Homo sapiens, MOLT-4, 240 h, highest ORY-1001 concentration 100 nM, read-out: Viability reduction (compared to vehicles)",> 20%
same,EC50 (viability),MOLT-4 cells [2],sub-nanomolar range

# Source: patent US11013698B2, “Combinations of LSD1 inhibitors for the treatment of hematological malignancies” (Oryzon Genomics S.A., priority 2016, dated 2021)
